Measurements: PubChem BioAssay (NCI)
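Cultured in 96-well plates, cells were exposed to test compound for 48 hours across five concentrations. TGI: concentration producing complete growth inhibition.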

Legend:
Assay in all cases: NCI-60 cell line screen, 48 h
UACC-62 melanoma = test system: UACC-62 melanoma
SK-MEL-5 melanoma = test system: SK-MEL-5 melanoma
NCI-H460 lung = test system: NCI-H460 lung
NCI-H226 lung = test system: NCI-H226 lung
SK-MEL-2 melanoma = test system: SK-MEL-2 melanoma
RXF 393 renal = test system: RXF 393 renal
NCI-H23 lung = test system: NCI-H23 lung
MOLT-4 leukemia = test system: MOLT-4 leukemia
786-0 renal = test system: 786-0 renal
HOP-62 NSCLC = test system: HOP-62 NSCLC
HCT-15 colon = test system: HCT-15 colon
SNB-19 CNS = test system: SNB-19 CNS
CCRF-CEM leukemia = test system: CCRF-CEM leukemia
OVCAR-3 ovarian = test system: OVCAR-3 ovarian
OVCAR-5 ovarian = test system: OVCAR-5 ovarian
SW-620 colon = test system: SW-620 colon
SF-539 CNS = test system: SF-539 CNS
EKVX NSCLC = test system: EKVX NSCLC
DLD-1 colon = test system: DLD-1 colon
UACC-257 melanoma = test system: UACC-257 melanoma
CAKI-1 renal = test system: CAKI-1 renal
XF 498 CNS = test system: XF 498 CNS
M19-MEL melanoma = test system: M19-MEL melanoma
KM12 colon = test system: KM12 colon
K-562 leukemia = test system: K-562 leukemia
COLO 205 colon = test system: COLO 205 colon
SK-OV-3 ovarian = test system: SK-OV-3 ovarian
A549 NSCLC = test system: A549 NSCLC
SF-268 CNS = test system: SF-268 CNS
MALME-3M melanoma = test system: MALME-3M melanoma
ACHN renal = test system: ACHN renal
UO-31 renal = test system: UO-31 renal
U251 CNS = test system: U251 CNS
SNB-78 CNS = test system: SNB-78 CNS
HL-60(TB) leukemia = test system: HL-60(TB) leukemia
HCC-2998 colon = test system: HCC-2998 colon
OVCAR-4 ovarian = test system: OVCAR-4 ovarian
NCI-H522 lung = test system: NCI-H522 lung
SN12C renal = test system: SN12C renal
HOP-18 NSCLC = test system: HOP-18 NSCLC
SR leukemia = test system: SR leukemia
SF-295 CNS = test system: SF-295 CNS
KM20L2 colon = test system: KM20L2 colon
OVCAR-8 ovarian = test system: OVCAR-8 ovarian
HOP-92 NSCLC = test system: HOP-92 NSCLC
IGROV1 ovarian = test system: IGROV1 ovarian
DMS 273 small cell lung = test system: DMS 273 small cell lung
LOX IMVI melanoma = test system: LOX IMVI melanoma
RPMI-8226 leukemia = test system: RPMI-8226 leukemia
M14 melanoma = test system: M14 melanoma
SK-MEL-28 melanoma = test system: SK-MEL-28 melanoma
LXFL 529 NSCLC = test system: LXFL 529 NSCLC
TK-10 renal = test system: TK-10 renal
DMS 114 small cell lung = test system: DMS 114 small cell lung
HCT-116 colon = test system: HCT-116 colon

Question: Which results are given for `CCOc1ccc(N=Nc2ccc3oc(=O)c(/C(C)=N/NC(=O)CC(=O)Nc4cccc(OC)c4)cc3c2)cc1`?
Answer: TGI (UACC-62 melanoma): 39.7 µM; TGI (SK-MEL-5 melanoma): 58.4 µM; TGI (NCI-H460 lung): 46.3 µM; TGI (NCI-H226 lung): > 73 µM; TGI (SK-MEL-2 melanoma): 45.7 µM; TGI (RXF 393 renal): 38.1 µM; TGI (NCI-H23 lung): 33.4 µM; TGI (MOLT-4 leukemia): > 56 µM; TGI (786-0 renal): 22.3 µM; TGI (HOP-62 NSCLC): 31.7 µM; TGI (HCT-15 colon): > 86.3 µM; TGI (SNB-19 CNS): > 79 µM; TGI (CCRF-CEM leukemia): 21.6 µM; TGI (OVCAR-3 ovarian): 37 µM; TGI (OVCAR-5 ovarian): > 70.3 µM; TGI (SW-620 colon): 85.1 µM; TGI (SF-539 CNS): 51 µM; TGI (EKVX NSCLC): 55.5 µM; TGI (DLD-1 colon): 45.5 µM; TGI (UACC-257 melanoma): 22 µM; TGI (CAKI-1 renal): > 45.4 µM; TGI (XF 498 CNS): 42 µM; TGI (M19-MEL melanoma): > 88.1 µM; TGI (KM12 colon): > 56.9 µM; TGI (K-562 leukemia): 86.5 µM; TGI (COLO 205 colon): 78.3 µM; TGI (SK-OV-3 ovarian): 82.3 µM; TGI (A549 NSCLC): > 74.6 µM; TGI (SF-268 CNS): 52.5 µM; TGI (MALME-3M melanoma): 37.5 µM; TGI (ACHN renal): 51.6 µM; TGI (UO-31 renal): 29.5 µM; TGI (U251 CNS): 17.1 µM; TGI (SNB-78 CNS): > 95.9 µM; TGI (HL-60(TB) leukemia): 16.1 µM; TGI (HCC-2998 colon): 30.2 µM; TGI (OVCAR-4 ovarian): 52.6 µM; TGI (NCI-H522 lung): 72.4 µM; TGI (SN12C renal): 30.8 µM; TGI (HOP-18 NSCLC): 74.4 µM; TGI (SR leukemia): 10.1 µM; TGI (SF-295 CNS): 53.8 µM; TGI (KM20L2 colon): > 31.6 µM; TGI (OVCAR-8 ovarian): > 61.4 µM; TGI (HOP-92 NSCLC): 47.4 µM; TGI (IGROV1 ovarian): 65.4 µM; TGI (DMS 273 small cell lung): > 71.2 µM; TGI (LOX IMVI melanoma): 60.5 µM; TGI (RPMI-8226 leukemia): 53.7 µM; TGI (M14 melanoma): 77.3 µM; TGI (SK-MEL-28 melanoma): 92 µM; TGI (LXFL 529 NSCLC): 33.5 µM; TGI (TK-10 renal): > 100 µM; TGI (DMS 114 small cell lung): 44.5 µM; TGI (HCT-116 colon): 33.7 µM
